Test results: patent US20240150297A1, “NOVEL COMPOUNDS COMPRISING A NEW CLASS OF TRANSTHYRETIN LIGANDS FOR TREATMENT OF COMMON AGE-RELATED COMORBIDITIES” (The Trustees of Columbia University in the City of New York, priority 2021, published 2024)
pEC50, pIC50: −log10 of the molar value. Where two headings read alike, the source gives them in different places.

What was measured:
[1] = molecular target: native RBP4 purified from human urine (Homo sapiens (Human), UniProt P02753); assay: RBP4 scintillation proximity (SPA) binding assay; details: read-out: RBP4 SPA IC50; fixed 10 nM 3H-retinol
[2] = Metabolic stability and clearance in human liver microsomes; type: in vitro ADME
Method: (§1) The results of metabolic stability determinations for novel compounds and testosterone (positive control) were conducted in the presence of human, rat, mouse, and monkey liver microsomes. Values shown are percent of parent remaining after a 30 minute incubation. All measurements were done in duplicate. Assay results for testosterone were within an acceptable range.
(§2) Mixed-gender human liver microsomes (Lot# 1710084), male Sprague-Dawley rat liver microsomes (Lot# 1610290), male CD-1 mouse liver microsomes (Lot# 1710069), and male Cynomolgous liver microsomes (Lot# 1510193) were purchased from XenoTech. […]. The test article was added into the reaction mixture at a final concentration of 1 μM. The control compound, testosterone, was run simultaneously with the test article in a separate reaction. An aliquot of the reaction mixture (without cofactor) was equilibrated in a shaking water bath at 37° C. for 3 minutes. The reaction was initiated by the addition of cofactor, and the mixture was incubated in a shaking water bath at 37° C. Aliquots (100 μL) were withdrawn at 0, 10, 20, 30, and 60 minutes. Test article and testosterone samples were immediately combined with 400 μL of ice-cold 50/50 acetonitrile (ACN)/H2O containing 0.1% formic acid and internal standard to terminate the reaction. […] Half-lives were calculated using GraphPad software, fitting to a single-phase exponential decay equation.

[3] = Plasma protein binding, human; type: in vitro ADME
Text: The peak areas of the test compound in the buffer and test samples were used to calculate percent binding and recovery according to the following formulas:
Areap=Peak area of analyte in protein matrix Areab=Peak area of analyte in buffer Areac=Peak area of analyte in control sample

CYP2C9 = CYP2C9 (Homo sapiens (Human), UniProt P11712); assay: CYP450 inhibition assay, CYP2C9; type: in vitro ADME
[4] = Metabolic stability and clearance in rat liver microsomes; type: in vitro ADME
Method: as §1, §2

[5] = CD-1 mice
[6] = Metabolic stability and clearance in cynomolgus monkey liver microsomes; type: in vitro ADME
Method: as §1, §2

in vivo = details: male, CD-1, mouse
CYP2C19 = CYP2C19 (Homo sapiens (Human), UniProt P33261); assay: CYP450 inhibition assay, CYP2C19; type: in vitro ADME; details: pH 7.4, read-out: CYP Inhibition (% Inhibition at 10 μm) 2C19
Kinetic solubility assay = type: physicochemical; details: PBS pH 7.4
[7] = molecular target: peroxisome proliferator-activated receptor-gamma (PPARγ) receptor (Homo sapiens (Human), UniProt P37231); assay: PPARγ activity
CYP2D6 = CYP2D6 (Homo sapiens (Human), UniProt P10635)
serum RBP4 = assay: Serum RBP4 measurement after single oral dose in mice (PK-PD); type: in vivo, mouse
Method: FIG. 6. Pharmacokinetic and pharmacodynamic properties of 18a in mice. […]. Data are presented as means±SD. Three mice per treatment group were used in the PK-PD study.
Blood samples were collected from a tail vein. Whole blood was drawn into a centrifuge tube and was allowed to clot at room temperature for 30 minutes followed by centrifugation at 2000 g for 15 minutes at […] to collect serum. […] Whole blood was drawn into a centrifuge tube and was allowed to clot at room temperature for 30 min followed by centrifugation at 2000 g for 15 min at +4° C to collect serum.
There was no effect of compound dosing on serum TTR levels (data not shown). […].

[8] = Metabolic stability and clearance in mouse liver microsomes; type: in vitro ADME
Method: as §1, §2

[9] = molecular target: TTR isolated from human plasma (Homo sapiens (Human), UniProt P02766); assay: Fluorescence polarization TTR tetramer binding assay; details: fixed 25 μM FITC-coupled TTR FP probe
human TTR = human TTR (Homo sapiens (Human), UniProt P02766); assay: Low pH-induced TTR aggregation assay (SDS-PAGE/Western blot); type: biochemical; details: 50 μM compound, pH 4.0, 72 h, 37° C.
Method: FIG. 5. […]. Bar graphs represent pixel volume means±S.D. of the scanned bands on the immunoblots in arbitrary units for TTR high-molecular-weight aggregates (B), dimers (C), and monomers (D). Statistical significance was determined by one-way ANOVA with Holm-Sidak post hoc test; *, p≤0.05**, p≤0.01***, p≤0.001; ****, p≤0.0001 compared to TTR aggregation+DMSO group (pH4.0) *, p=0.05, **, p≤0.01; ***, p≤0.001; ****, […] compare to TTR without aggregation group (pH=7.5).
The ability of test compounds to prevent TTR aggregation was evaluated under the acidic conditions that favor TTR aggregation and fibril formation. […] At the end of the incubation, 3.5 μl 500 mM sodium phosphate (Sigma #S5136) buffer (pH=8.0) was added to each sample for neutralization and 0.6 μl 5% CHAPS (Sigma #C5070) as a detergent to prevent reassociation of protein. The cross-linking was performed by adding 1.5 μl 5% glutaraldehyde solution (Sigma# G6257). After 4 min, the reaction was stopped by the addition of 2.5 μl freshly made 5% NaBH4. […] Band intensity for TTR monomer and TTR aggregates was quantified from scanned images of the blots.
The ability of TTR ligands to act as kinetic stabilizers of TTR tetramers was assessed in vitro using a low pH-induced TTR aggregation SDS-PAGE assay (Coelho, T. et al. 2016; Cruz, M. W. 2019). […]

[10] = 441 ATTR-CM patients; cited from earlier work

Chain of CYP2D6 (P10635 whole entry): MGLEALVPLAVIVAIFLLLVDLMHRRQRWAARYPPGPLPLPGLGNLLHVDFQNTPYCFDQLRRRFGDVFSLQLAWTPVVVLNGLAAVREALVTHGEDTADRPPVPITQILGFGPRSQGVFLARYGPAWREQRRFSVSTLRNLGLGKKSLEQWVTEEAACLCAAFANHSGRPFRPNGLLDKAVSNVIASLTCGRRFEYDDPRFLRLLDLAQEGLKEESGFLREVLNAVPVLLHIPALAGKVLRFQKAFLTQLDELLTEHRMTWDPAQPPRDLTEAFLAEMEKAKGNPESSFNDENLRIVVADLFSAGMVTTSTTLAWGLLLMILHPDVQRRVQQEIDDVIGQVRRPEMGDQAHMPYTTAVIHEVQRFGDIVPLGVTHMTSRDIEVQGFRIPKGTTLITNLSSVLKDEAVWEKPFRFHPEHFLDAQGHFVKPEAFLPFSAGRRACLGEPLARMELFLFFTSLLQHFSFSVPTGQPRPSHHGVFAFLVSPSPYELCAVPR
Chain of CYP2C19 (P33261 whole entry): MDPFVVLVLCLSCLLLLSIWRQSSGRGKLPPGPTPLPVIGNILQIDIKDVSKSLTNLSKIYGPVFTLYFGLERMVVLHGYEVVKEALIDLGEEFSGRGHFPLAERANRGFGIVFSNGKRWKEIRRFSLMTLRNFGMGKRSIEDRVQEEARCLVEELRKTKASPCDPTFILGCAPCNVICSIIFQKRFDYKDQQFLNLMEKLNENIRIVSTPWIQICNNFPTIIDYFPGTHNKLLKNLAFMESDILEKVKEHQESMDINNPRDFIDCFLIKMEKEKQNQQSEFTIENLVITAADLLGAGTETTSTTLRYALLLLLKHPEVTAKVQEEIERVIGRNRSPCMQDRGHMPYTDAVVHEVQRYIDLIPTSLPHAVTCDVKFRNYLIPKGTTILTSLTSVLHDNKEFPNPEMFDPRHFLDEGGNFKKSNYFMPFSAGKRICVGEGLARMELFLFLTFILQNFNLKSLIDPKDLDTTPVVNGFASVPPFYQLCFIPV
Chain of peroxisome proliferator-activated receptor-gamma (PPARγ) receptor (P37231 whole entry, species assumed): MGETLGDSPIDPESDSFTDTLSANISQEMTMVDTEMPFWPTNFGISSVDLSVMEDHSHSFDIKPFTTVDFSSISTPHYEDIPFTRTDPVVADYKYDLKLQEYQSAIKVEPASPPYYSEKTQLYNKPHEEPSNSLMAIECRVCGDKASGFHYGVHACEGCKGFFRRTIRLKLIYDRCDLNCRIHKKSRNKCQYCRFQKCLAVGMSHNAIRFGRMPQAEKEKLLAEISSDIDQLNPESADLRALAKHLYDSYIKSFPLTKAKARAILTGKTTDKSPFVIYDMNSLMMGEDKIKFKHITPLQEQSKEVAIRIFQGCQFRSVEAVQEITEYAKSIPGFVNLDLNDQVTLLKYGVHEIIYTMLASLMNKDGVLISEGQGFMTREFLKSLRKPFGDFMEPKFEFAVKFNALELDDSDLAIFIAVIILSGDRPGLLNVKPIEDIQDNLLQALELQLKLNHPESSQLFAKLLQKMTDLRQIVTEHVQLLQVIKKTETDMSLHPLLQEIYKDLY
Chain of CYP2C9 (P11712 whole entry): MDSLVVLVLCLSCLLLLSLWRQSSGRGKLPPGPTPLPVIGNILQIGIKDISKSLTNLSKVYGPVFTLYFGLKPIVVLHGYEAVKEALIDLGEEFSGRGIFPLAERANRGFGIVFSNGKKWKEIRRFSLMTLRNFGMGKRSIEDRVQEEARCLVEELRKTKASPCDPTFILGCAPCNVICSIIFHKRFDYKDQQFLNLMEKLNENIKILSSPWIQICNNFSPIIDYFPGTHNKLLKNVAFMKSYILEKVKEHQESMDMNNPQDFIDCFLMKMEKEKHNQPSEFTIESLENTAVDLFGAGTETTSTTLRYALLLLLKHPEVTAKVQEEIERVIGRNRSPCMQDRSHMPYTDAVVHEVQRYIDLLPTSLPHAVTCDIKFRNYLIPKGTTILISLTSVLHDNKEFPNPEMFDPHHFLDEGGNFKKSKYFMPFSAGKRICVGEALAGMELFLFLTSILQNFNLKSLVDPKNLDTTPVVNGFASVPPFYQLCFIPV

Cc1n[nH]c(C)c1CCCOc1cc(C(=O)O)ccc1F [AG10 (4), AG10, reference compound]
pIC50 [1]: < 4.52

Cc1n[nH]c(C)c1N1CCN(c2cc(C(=O)O)ccc2F)CC1 [Compound 18a, 3-(4-(3,5-Dimethyl-1H-pyrazol-4-yl)piperazin-1-yl)-4-fluorobenzoic Acid]
Liver Microsomal Stability (% remaining at 30 min) HLM ([2]; 30 minute incubation): 93%
microsomal CLint at 1 μM ([2]; both sexes, human liver microsomes): < 0.0231 µL/min/mg
% PPB human [3]: 83%
CYP Inhibition (% Inhibition at 10 μm) 2C9 (CYP2C9): 2C9 - 10.4%
Liver Microsomal Stability (% remaining at 30 min) RLM ([4]; 30 minute incubation): 98%
microsomal CLint at 1 μM ([4]; male, Sprague-Dawley, rat liver microsomes): < 0.0231 µL/min/mg
AUCINF ([5]; IV 2 mg/kg): 6242 ng·h/mL
AUClast ([5]; IV 2 mg/kg): 6214 ng·h/mL
CL, total body clearance ([5]; IV 2 mg/kg): 5.9 mL/min/kg
Vss ([5]; IV 2 mg/kg): 2.18 L/kg
t1/2 ([5]; IV 2 mg/kg): 5.08 h
% F, oral bioavailability ([5]; PO 5 mg/kg vs IV 2 mg/kg): 103%
AUCINF ([5]; PO 5 mg/kg): 16073 ng·h/mL
AUClast ([5]; PO 5 mg/kg): 16040 ng·h/mL
t1/2 ([5]; PO 5 mg/kg): 5.38 h
Liver Microsomal Stability (% remaining at 30 min) cyno LM ([6]; 30 minute incubation): 94%
microsomal CLint at 1 μM ([6]; male, cynomolgus monkey liver microsomes, read-out: Microsomal CLint, cyno): < 0.0231 µL/min/mg
clearance (in vivo; iv, 2 mg/kg): 5.9 mL/min/kg
half-life (in vivo; iv, 2 mg/kg): 5.08 h
AUC(0-inf) (in vivo; po, 5 mg/kg): 16100 ng·h/mL
Cmax (in vivo; po, 5 mg/kg): 1560 ng/mL
inhibition at 10 µM (CYP2C19): 3.1%
Kinetic solubility (Kinetic solubility assay): 184.5 µM
pEC50 [7]: < 4.00
CYP Inhibition (% Inhibition at 10 μm) 2D6 (CYP2D6): 2D6 - 8.1%
effect on serum TTR levels (serum RBP4; after compound dosing, data not shown): no effect
maximal reduction in serum RBP4 (serum RBP4; single 25 mg/kg oral dose, 2 h after administration): 66%
Liver Microsomal Stability (% remaining at 30 min) MLM ([8]; 30 minute incubation): 102%
microsomal CLint at 1 μM ([8]; male, CD-1, mouse liver microsomes): < 0.0231 µL/min/mg

Cc1n[nH]c(C)c1N1CCN(c2cccc(C(=O)O)c2)CC1 [Compound 18b, 3-(4-(3,5-Dimethyl-1H-pyrazol-4-yl)piperazin-1-yl)benzoic Acid]
pIC50 [1]: < 4.52

COc1ccc(C(=O)O)cc1N1CCN(c2c(C)n[nH]c2C)CC1 [Compound 18c, 3-(4-(3,5-Dimethyl-1H-pyrazol-4-yl)piperazin-1-yl)-4-methoxybenzoic Acid]
pIC50 [1]: < 5.52
pIC50 [9]: 6.52

Cc1ccc(C(=O)O)cc1N1CCN(c2c(C)n[nH]c2C)CC1 [Compound 18d, 3-(4-(3,5-Dimethyl-1H-pyrazol-4-yl)piperazin-1-yl)-4-methylbenzoic Acid]
pIC50 [1]: < 5.52

Cc1n[nH]c(C)c1N1CCN(c2cc(C(=O)O)ccc2C(F)(F)F)CC1 [Compound 18e, 3-(4-(3,5-Dimethyl-1H-pyrazol-4-yl)piperazin-1-yl)-4-(trifluoromethyl)benzoic Acid]
pIC50 [1]: < 5.52

Cc1n[nH]c(C)c1N1CCN(c2cc(C(=O)O)ccc2Cl)CC1 [Compound 18f, 4-Chloro-3-(4-(3,5-dimethyl-1H-pyrazol-4-yl)piperazin-1-yl)benzoic Acid]
pIC50 [1]: < 5.52

Cc1n[nH]c(C)c1N1CCN(c2cccc(C(=O)O)c2F)CC1 [Compound 18g, 3-(4-(3,5-Dimethyl-1H-pyrazol-4-yl)piperazin-1-yl)-2-fluorobenzoic Acid]
pIC50 [1]: < 5.52

Cc1n[nH]c(C)c1N1CCN(c2ccc(F)c(C(=O)O)c2)CC1 [Compound 18h, 5-(4-(3,5-Dimethyl-1H-pyrazol-4-yl)piperazin-1-yl)-2-fluorobenzoic Acid]
pIC50 [1]: < 5.52

Cc1n[nH]c(C)c1N1CCN(c2cc(F)cc(C(=O)O)c2)CC1 [Compound 18i, 3-(4-(3,5-Dimethyl-1H-pyrazol-4-yl)piperazin-1-yl)-5-fluorobenzoic Acid]
pIC50 [1]: < 5.52

Cc1cc(F)c(N2CCN(c3c(C)n[nH]c3C)CC2)cc1C(=O)O [Compound 18j, 5-(4-(3,5-Dimethyl-1H-pyrazol-4-yl)piperazin-1-yl)-4-fluoro-2-methylbenzoic Acid]
pIC50 [1]: < 5.52

Cc1noc(C)c1N1CCN(c2cc(C(=O)O)ccc2F)CC1 [Compound 20, 3-(4-(3,5-Dimethylisoxazol-4-yl)piperazin-1-yl)-4-fluorobenzoic Acid]
pIC50 [1]: < 5.52

Cc1n[nH]c(C)c1N1CCN(c2cc(C(N)=O)ccc2F)CC1 [Compound 21, 3-(4-(3,5-Dimethyl-1H-pyrazol-4-yl)piperazin-1-yl)-4-fluorobenzamide]
pIC50 [1]: < 5.52

Cc1n[nH]c(C)c1N1CCN(c2cc(-c3nn[nH]n3)ccc2F)CC1 [Compound 22, 1-(3,5-Dimethyl-1H-pyrazol-4-yl)-4-(2-fluoro-5-(2H-tetrazol-5-yl)phenyl)piperazine]
pIC50 [1]: < 5.52

CC/C(=C(/CC)c1ccc(O)cc1)c1ccc(O)cc1 [Diethylstilbesterol]
Kinetic solubility (Kinetic solubility assay): 7.0 µM

CC(=O)N1CCN(c2ccc(OCC3COC(Cn4ccnc4)(c4ccc(Cl)cc4Cl)O3)cc2)CC1 (stereo not shown) [Ketoconazole]
Kinetic solubility (Kinetic solubility assay): 152.8 µM

O=C(O)c1ccc2nc(-c3cc(Cl)cc(Cl)c3)oc2c1 [Tafamadis (3), tafamidis]
pIC50 [1]: < 4.52
formation of high molecular weight forms of TTR (human TTR): significantly inhibited
reduction of rate of cardiovascular-related hospitalizations compared to placebo [10]: 32%
reduction of risk of death compared to placebo [10]: 30%
